From ChEMBL document CHEMBL3507680, “University of Dundee, Gates Library screen for HepG2 cell viability”

Assay: Human HepG2 cell viability assay in 384 well format
Type: toxicity, cell-based
Parameters: dose 125 nL, time 70.5 hour; cytotoxicity at 70.5 h: concentration not given beside the values
Conditions: HepG2 cells, read-out: Inhibition

Cc1nn(-c2ccccc2)cc1C(=O)N1CCCN2CCCC2C1 (centres undefined)
cytotoxicity at 70.5 h: 3.01%

CN1CCC(c2cccc(Cc3ccccc3)n2)CC1
cytotoxicity at 70.5 h: 3.18%

NC(=O)c1csc(N2CCN(Cc3cccc4nsnc34)CC2)n1
cytotoxicity at 70.5 h: 15.7%

CC(Cc1ccccc1Cl)NC(=O)Nc1cnn(CC(N)=O)c1 (centres undefined)
cytotoxicity at 70.5 h: -2.99%

CCn1ncc(NC(=O)CCn2ncc3c(Cl)cccc32)c1C
cytotoxicity at 70.5 h: 7.52%

Cc1ccc2nnc(C(=O)NCCCn3cccn3)nc2c1
cytotoxicity at 70.5 h: 6.08%

Cc1cc(C2CCCN(C(=O)Cc3csc(C(C)C)n3)C2)n[nH]1 (centres undefined)
cytotoxicity at 70.5 h: -5.03%

CN(Cc1ccccc1)C1(C(=O)NC(C)(C)CO)Cc2ccccc2C1
cytotoxicity at 70.5 h: 2.66%

Cc1cc(N2C[C@H](NC(=O)C3(C#N)CCOCC3)[C@@H](C(C)C)C2)ccn1
cytotoxicity at 70.5 h: -10.5%

Cc1csc(CCNC(=O)N2CCC(n3cccc3)CC2)n1
cytotoxicity at 70.5 h: -7.68%

Cc1oc(-c2ccco2)nc1CC(=O)N1CCN(CC(C)O)CC1 (centres undefined)
cytotoxicity at 70.5 h: 11.6%

O=C(O)C1(Cc2ccc(F)cc2F)CCCN(Cc2ccncc2)C1 (centres undefined)
cytotoxicity at 70.5 h: -5.04%

Cc1nn2c(NC(=O)CSc3ncccn3)csc2nc1=O
cytotoxicity at 70.5 h: -12.6%

Cc1cccc(-n2cc(C(=O)N3CCCC(n4cccn4)C3)nn2)c1 (centres undefined)
cytotoxicity at 70.5 h: -13.8%

Cn1nc(C(=O)NCCc2ccc(OC3CCCC3)cc2)ccc1=O
cytotoxicity at 70.5 h: 12.1%

Cc1noc(C)c1CN1C[C@@H](C(=O)O)[C@H](c2ccccc2)C1
cytotoxicity at 70.5 h: -5.34%

CC(C)NC(=O)N1CCOC2(CNC2)C1
cytotoxicity at 70.5 h: -4.25%

CC(c1nnc(-c2cccs2)o1)N1CCn2c(nnc2C2CC2)C1 (centres undefined)
cytotoxicity at 70.5 h: -0.792%

CS(=O)(=O)N1CCc2[nH]cnc2C12CCN(C1CCOCC1)CC2
cytotoxicity at 70.5 h: -6.93%

N#Cc1cc(F)ccc1CN1CCCCC1Cn1cccn1 (centres undefined)
cytotoxicity at 70.5 h: -1.56%

Cc1ccc(C)c(SCC(=O)Nc2cccc(C(=O)N(C)C)n2)c1
cytotoxicity at 70.5 h: 11.9%

O=C(CCNc1ncccn1)NCCc1ccc(Cl)s1
cytotoxicity at 70.5 h: -3.42%

Cc1ccc(N(C)CC(O)COCc2ccccc2)c(C)c1 (centres undefined)
cytotoxicity at 70.5 h: 12.5%

Cc1c(-c2ccncc2)n[nH]c1NC(=O)CCOC(C)C
cytotoxicity at 70.5 h: -4.44%

COc1cc(NCC(c2ccccn2)N(C)C)ncn1 (centres undefined)
cytotoxicity at 70.5 h: -5.7%

Cc1ccccc1N1CCCN(C(=O)CN2C(=O)OC[C@@H]2C(C)C)CC1
cytotoxicity at 70.5 h: 25.8%

CCOc1ncnc2c1CCN(C(=O)NCc1cccnc1)CC2
cytotoxicity at 70.5 h: 6.36%

COc1ccccc1-c1cc(NC(=O)CC2CCS(=O)(=O)C2)[nH]n1 (centres undefined)
cytotoxicity at 70.5 h: -9.57%

CN(C)Cc1cnc(CC2CCN(CCc3ccccc3)CC2)cn1
cytotoxicity at 70.5 h: 0.387%

CN(C)C(C(=O)NCC1(C)COC1)c1cccc(F)c1 (centres undefined)
cytotoxicity at 70.5 h: -3.06%

COC[C@@]12CCO[C@@H]1CCN(Cc1ccccc1OC)C2
cytotoxicity at 70.5 h: -12.9%

O=C1CCC2(CCN(CCSc3ccccc3)CC2)CN1CCCO
cytotoxicity at 70.5 h: -1.81%

CCCc1nn(C2CCN(C3CC3)C2=O)c(=O)o1 (centres undefined)
cytotoxicity at 70.5 h: -5.48%

COCC1CCCN(C(=O)c2ccccc2NCc2cccnc2)C1 (centres undefined)
cytotoxicity at 70.5 h: 3.32%

NC(=O)c1cc(C2CCCN(C(=O)CCc3cccs3)C2)n[nH]1 (centres undefined)
cytotoxicity at 70.5 h: 10.7%

CCn1cc(C(=O)N(C)[C@@H]2CC[C@@H](N3CCCC3)[C@@H]2O)c(C)n1
cytotoxicity at 70.5 h: -5.26%

Cc1nn(C)c(N(C)C)c1CNCc1ccccc1CN(C)C
cytotoxicity at 70.5 h: 18.8%

c1cnc(N2CCOCC3(CCCN(c4nncs4)C3)C2)cn1 (centres undefined)
cytotoxicity at 70.5 h: -3.82%

Cc1ccc(C(=O)N(C)C)cc1NC(=O)COCC1CC1
cytotoxicity at 70.5 h: -6.84%

O=C(NCCCc1nnc2ccccn12)c1ccccc1C1CCNC1 (centres undefined)
cytotoxicity at 70.5 h: -0.698%

CCC(=O)Nc1cc(Br)cnc1OCC(F)(F)F
cytotoxicity at 70.5 h: -8.98%

COCCN1C(=O)CCC12CCN(c1ncc(F)cn1)CC2
cytotoxicity at 70.5 h: -2.74%

Cc1cnc(C(=O)NCc2ccnc(N(C)C)c2)cn1
cytotoxicity at 70.5 h: -2.67%

COc1ccc2cc(NC(=O)CCNc3nc(C)cc(C)n3)cnc2c1
cytotoxicity at 70.5 h: -24.1%

CCn1c(C)nnc1SCCNc1cc(N2CCOCC2)ncn1
cytotoxicity at 70.5 h: -18.8%

CC1(C(=O)N2CCOCC2)CN(Cc2ccccn2)CCO1 (centres undefined)
cytotoxicity at 70.5 h: 26.2%

CC(=O)N1CC[C@H]2CC(=O)N(C3CCCCC3)CC[C@H]2C1
cytotoxicity at 70.5 h: -2.68%

Cc1nc(N(C)C)nc2c1COCC21CCN(C(=O)C2CC2)C1 (centres undefined)
cytotoxicity at 70.5 h: -3.72%

CN(Cc1ccccc1)C(=O)c1nc(S(C)(=O)=O)n2ccccc12
cytotoxicity at 70.5 h: 31.2%

CCCNC(=O)c1ncn2c1CN(CC(C)C)S(=O)(=O)c1ccccc1-2
cytotoxicity at 70.5 h: 13.4%

CC(c1ccccc1)N(C)C(=O)Cn1cc(NC(=O)C(C)(C)C)cn1 (centres undefined)
cytotoxicity at 70.5 h: -3.77%

CCn1c(CN2CCOC(Cn3cncn3)C2)nc2c(F)cccc21 (centres undefined)
cytotoxicity at 70.5 h: 15.4%

O=C(N[C@@H]1CN(Cc2ccccn2)[C@@H]2COC[C@@H]21)C1CCC1
cytotoxicity at 70.5 h: -1.02%

Cc1cc2[nH]c(=O)oc2cc1S(=O)(=O)N1CCC(N2CCCC2=O)CC1
cytotoxicity at 70.5 h: -9.07%

COC(=O)c1cccnc1N1CCC(Oc2cccc(F)c2)CC1
cytotoxicity at 70.5 h: 1.14%

CC(C)C(=O)N1CC[C@H]2N(C)CC[C@@]2(C(=O)Nc2cccnc2)CC1
cytotoxicity at 70.5 h: -10.9%

Nc1ncnc2nc(C3CCN(C(=O)Cc4ccccc4)C3)ccc12 (centres undefined)
cytotoxicity at 70.5 h: 13.4%

CCN1CCN(CCCNc2ncccn2)CC1
cytotoxicity at 70.5 h: 9.52%

Cc1cnn(CC2CN(Cc3nc(C)no3)CCO2)c1 (centres undefined)
cytotoxicity at 70.5 h: -1.3%

COc1ccc(-c2cc(CN)nc3ccnn23)cc1
cytotoxicity at 70.5 h: -12.4%

O=C(O)COc1ccc(Cl)cc1CN1CCC2(CCOCC2)CC1
cytotoxicity at 70.5 h: 2.03%

CCC(C(=O)NCc1csc(-c2ncccn2)n1)n1cccn1 (centres undefined)
cytotoxicity at 70.5 h: 13%

O=C(NC[C@H]1OC[C@@H](NC2COC2)[C@@H]1O)Nc1ccccc1
cytotoxicity at 70.5 h: -1.19%

O=C(CCc1ncc(-c2ccc(F)cc2)o1)NCCN1CCOCC1
cytotoxicity at 70.5 h: -3.91%

CCC(CC)N1CCC(c2[nH]ncc2S(C)(=O)=O)C1 (centres undefined)
cytotoxicity at 70.5 h: -5.29%

CN(C)c1nccc(N(C)Cc2nc3ccccc3n2C)n1
cytotoxicity at 70.5 h: 10.9%

CC(=O)N1CC2(CCNCC2)c2cc(C)ccc21
cytotoxicity at 70.5 h: 20.4%

CC1CCC(NC(=O)CNC2(c3ccc(Br)cc3)CCOCC2)CC1 (centres undefined)
cytotoxicity at 70.5 h: 4.23%

O=C(COCC1CC1)Nc1cc(-c2ccc(Br)s2)n[nH]1
cytotoxicity at 70.5 h: -5.77%

CCn1ccnc1CN1C[C@@H](CN2CCCC2)[C@@H](CO)C1
cytotoxicity at 70.5 h: -0.818%

O=C(NCCOCCO)[C@@]12CNC[C@@H]1CN(C1CCCC1)C2
cytotoxicity at 70.5 h: 2.24%

N#Cc1ccccc1N1CCN(C(=O)NCC(=O)N2CCCC2)CC1
cytotoxicity at 70.5 h: -0.138%

Cc1ccc(C)c2c(O)cc(CN3CCC(c4nncn4C)CC3)nc12
cytotoxicity at 70.5 h: 0.0856%

COCCn1cnc(-c2cc(C(=O)NC(C)C)c3ccccn23)c1
cytotoxicity at 70.5 h: -6.05%

CCNC(=O)NC[C@@H]1C=C(C)[C@H](CC(=O)NCCN(C)C)C[C@H]1C(C)C
cytotoxicity at 70.5 h: -0.736%

NC(=O)C1CCN(C(C(=O)O)c2ccc(Cl)c(C(F)(F)F)c2)CC1 (centres undefined)
cytotoxicity at 70.5 h: 13.4%

O=C(Nc1ccc(-c2nnc[nH]2)cc1)C1CCN1Cc1ccccc1 (centres undefined)
cytotoxicity at 70.5 h: 14.7%

N#CCCN(Cc1ccccn1)C(=O)Nc1cccc(F)c1
cytotoxicity at 70.5 h: -6.04%

CC(C)n1cc(-c2c(C#N)c(N)nc3c2COCC3)cn1
cytotoxicity at 70.5 h: 10.2%

CS(=O)(=O)N1CCCC12CCCN(C(=O)c1ccno1)C2 (centres undefined)
cytotoxicity at 70.5 h: -9.08%

c1ccc(Oc2ccc(OC34CCCN(CC3)C4)cc2)cc1 (centres undefined)
cytotoxicity at 70.5 h: -9.13%

COc1c(CNCC(=O)N2CCN(C)CC2)c(C(C)C)nn1C
cytotoxicity at 70.5 h: -5.29%

COc1cc(C(=O)NS(=O)(=O)c2cccc(C#N)c2)cc(Cl)c1OC
cytotoxicity at 70.5 h: -8.04%

CC(O)c1cccc(N2CCC3(CCC(=O)N(C4CCCC4)C3)CC2)n1 (centres undefined)
cytotoxicity at 70.5 h: -2.86%

CCn1cc(CN2CCCC2c2nc(-c3ccccc3)no2)cc1C#N (centres undefined)
cytotoxicity at 70.5 h: 2.37%

CC(Cn1cncn1)NC(=O)c1cn(Cc2ccccc2F)nn1 (centres undefined)
cytotoxicity at 70.5 h: 0.213%

c1ccc(OCCCN2CCN(c3ccc4nncn4n3)CC2)cc1
cytotoxicity at 70.5 h: 2.05%

O[C@H]1[C@H](n2cc(-c3ccccc3)nn2)c2ccccc2C12CCNCC2
cytotoxicity at 70.5 h: 2.04%

Cc1ccc(Cl)cc1N1CCC(CNC(=O)CCn2ccnn2)C1 (centres undefined)
cytotoxicity at 70.5 h: -6.67%

CC(C(=O)NCCc1ccc2c(c1)OCCO2)n1cncn1 (centres undefined)
cytotoxicity at 70.5 h: -14.6%

CNC(=O)COc1c(F)cc(Br)cc1C(C)=O
cytotoxicity at 70.5 h: -5.63%

COc1ccc2c(ccn2CCC(=O)NCc2ccc(C(=O)O)cc2)c1
cytotoxicity at 70.5 h: -13.5%

O=C(CCSc1ccccc1)NCC1CCN(Cc2ccsc2)CC1
cytotoxicity at 70.5 h: 4.4%

CCn1ccnc1CNCC1CCCN1c1cc(NC)ncn1 (centres undefined)
cytotoxicity at 70.5 h: -4.32%

NC(=O)c1c(SCCN2CCOCC2)sc2c(O)cc(=O)[nH]c12
cytotoxicity at 70.5 h: 10.5%

CNC(=O)c1cccc(NCC(=O)Nc2cc(C)nn2C)c1C
cytotoxicity at 70.5 h: -14%

c1ccc(CN2CCC(NCCSc3ncn[nH]3)C2)cc1 (centres undefined)
cytotoxicity at 70.5 h: 30.4%

Nc1nc(CCCNC(=O)c2ccccc2C2CCNC2)cs1 (centres undefined)
cytotoxicity at 70.5 h: -20.9%

Cc1oc(-c2cccc(F)c2F)nc1CN(C)CCO
cytotoxicity at 70.5 h: -7.35%

CCc1nc(NCCn2cccn2)c2c(n1)c(C)nn2C
cytotoxicity at 70.5 h: -7.14%

CCN1CCN(C)C2(CCN(Cc3ccsc3)CC2)C1=O
cytotoxicity at 70.5 h: -9.43%

COc1ccc(-c2cc3nn(CC(N)=O)c(=O)n3c(C)n2)cc1
cytotoxicity at 70.5 h: -7.26%

Cc1cccc(CN2C[C@@H]3CN(C(=O)c4ccsc4)C[C@@H]3C2=O)n1
cytotoxicity at 70.5 h: -2.24%

Cc1[nH]c(=O)[nH]c(=O)c1CN1CCCC(CCc2ccccc2F)C1 (centres undefined)
cytotoxicity at 70.5 h: -5.63%

N#Cc1ccc(OCCCN2CCOC(Cn3cncn3)C2)cc1 (centres undefined)
cytotoxicity at 70.5 h: 32.1%

c1csc(CN2CCc3onc(Cn4cccc4)c3C2)c1
cytotoxicity at 70.5 h: 2.81%

CCSc1ccccc1C(=O)NCCn1nc(-n2cncn2)ccc1=O
cytotoxicity at 70.5 h: -10.2%

OC1(CN2CCC(Cc3ncccn3)CC2)CCOCC1
cytotoxicity at 70.5 h: 13.1%

CCN(CC)C(=O)Cn1c(-c2ccc(Cl)cc2)nc(C)c(CCO)c1=O
cytotoxicity at 70.5 h: 0.81%

NC(=O)C1CCN(C(=O)c2cccn2Cc2cccs2)CC1
cytotoxicity at 70.5 h: -4.99%

Cc1nc(C)c(C(C)NCc2cnc(N3CCOCC3)nc2)s1 (centres undefined)
cytotoxicity at 70.5 h: 19.8%

CC(C)(C)c1noc(OCC(=O)NCC(F)(F)F)n1
cytotoxicity at 70.5 h: -0.303%

CCCN1CCCn2nc(CNC(=O)CC(C)n3ccnc3C)cc2C1 (centres undefined)
cytotoxicity at 70.5 h: 9.04%

CC(C)N1CC2(CCC1=O)CCN(c1ccnc3ccccc13)CC2
cytotoxicity at 70.5 h: 41.8%
